Measured values as given in ChEMBL document CHEMBL5150005, “Discovery of 5-{4-[(7-Ethyl-6-oxo-5,6-dihydro-1,5-naphthyridin-3-yl)methyl]piperazin-1-yl}-N-methylpyridine-2-carboxamide (AZD5305): A PARP1-DNA Trapper with High Selectivity for PARP1 over PARP2 and Other PARPs” (J Med Chem, 2021).
pIC50, pKd: −log10 of the molar value. In brackets after ≈: the same amount, converted by molar mass. Activity calls are given as the source filed them. No cut-off for these calls is given here.

Assays:
physchem = details: buffer, pH 7.4
[1] = biological target: Poly [ADP-ribose] polymerase 1 (Homo sapiens, UniProt P09874)
[2] = Aqueous solubility of the compound at pH 7.4; assay type: physicochemical; details: buffer
[3] = biological target: Poly [ADP-ribose] polymerase 2 (Homo sapiens, UniProt Q9UGN5); assay: Inhibition of human recombinant N-terminal Avi-6His-TEV tagged PARP2 full length expressed in pFastBac expression system incubated for 4 hrs by fluorescence anisotropy binding assay
DLD-1 = assay: Antiproliferative activity against human DLD-1 deficient in BRCA-2 cells measured after 7 days; assay type: functional, cell-based
[4] = biological target: Voltage-gated inwardly rectifying potassium channel KCNH2 (Homo sapiens, UniProt Q12809); assay: Inhibition of human ERG; assay type: toxicity
in vitro [5] = details: human, liver microsomes
[6] = biological target: T1, Protein mono-ADP-ribosyltransferase PARP9 (Homo sapiens, UniProt Q8IXQ6); assay: Binding affinity to PARP9 (unknown origin) assessed as apparent dissociation constant; details: read-out: Kd(app)
[7] = biological target: Protein mono-ADP-ribosyltransferase PARP8 (Homo sapiens, UniProt Q8N3A8); assay: Binding affinity to PARP8 (unknown origin) assessed as apparent dissociation constant; details: read-out: Kd(app)
[8] = biological target: Poly [ADP-ribose] polymerase tankyrase-2 (Homo sapiens) (UniProt Q9H2K2)
[9] = biological target: Protein mono-ADP-ribosyltransferase PARP11 (Homo sapiens, UniProt Q9NR21)
[10] = Antitumor activity against patient derived explant HBCx-17 cells xenografted in mouse assessed as tumor regression administered daily at 100 mg/kg, po for 25 days relative to control; assay type: functional, Homo sapiens; details: time 25 day
[11] = biological target: Poly [ADP-ribose] polymerase tankyrase-1 (Homo sapiens, UniProt O95271)
in vitro [12] = details: human, Caco-2, pH 7.4
[13] = Intrinsic clearance in human hepatocytes measured per million of cells; assay type: ADME, cell-based, Hepatocyte; details: read-out: CLH
[14] = biological target: Poly [ADP-ribose] polymerase tankyrase-1 (Homo sapiens) (UniProt O95271); assay: Binding affinity to PARP5a (unknown origin) assessed as apparent dissociation constant
[15] = biological target: T1, Protein mono-ADP-ribosyltransferase PARP9
[16] = biological target: Protein mono-ADP-ribosyltransferase PARP16 (Homo sapiens, UniProt Q8N5Y8); assay: Binding affinity to PARP16 (unknown origin) assessed as apparent dissociation constant; details: read-out: Kd(app)
[17] = biological target: Protein mono-ADP-ribosyltransferase PARP3 (Homo sapiens) (UniProt Q9Y6F1); assay: Binding affinity to PARP3 (unknown origin) assessed as apparent dissociation constant
[18] = biological target: T2, Protein mono-ADP-ribosyltransferase PARP8 (Homo sapiens) (UniProt Q8N3A8)
T2 sequence (whole entry): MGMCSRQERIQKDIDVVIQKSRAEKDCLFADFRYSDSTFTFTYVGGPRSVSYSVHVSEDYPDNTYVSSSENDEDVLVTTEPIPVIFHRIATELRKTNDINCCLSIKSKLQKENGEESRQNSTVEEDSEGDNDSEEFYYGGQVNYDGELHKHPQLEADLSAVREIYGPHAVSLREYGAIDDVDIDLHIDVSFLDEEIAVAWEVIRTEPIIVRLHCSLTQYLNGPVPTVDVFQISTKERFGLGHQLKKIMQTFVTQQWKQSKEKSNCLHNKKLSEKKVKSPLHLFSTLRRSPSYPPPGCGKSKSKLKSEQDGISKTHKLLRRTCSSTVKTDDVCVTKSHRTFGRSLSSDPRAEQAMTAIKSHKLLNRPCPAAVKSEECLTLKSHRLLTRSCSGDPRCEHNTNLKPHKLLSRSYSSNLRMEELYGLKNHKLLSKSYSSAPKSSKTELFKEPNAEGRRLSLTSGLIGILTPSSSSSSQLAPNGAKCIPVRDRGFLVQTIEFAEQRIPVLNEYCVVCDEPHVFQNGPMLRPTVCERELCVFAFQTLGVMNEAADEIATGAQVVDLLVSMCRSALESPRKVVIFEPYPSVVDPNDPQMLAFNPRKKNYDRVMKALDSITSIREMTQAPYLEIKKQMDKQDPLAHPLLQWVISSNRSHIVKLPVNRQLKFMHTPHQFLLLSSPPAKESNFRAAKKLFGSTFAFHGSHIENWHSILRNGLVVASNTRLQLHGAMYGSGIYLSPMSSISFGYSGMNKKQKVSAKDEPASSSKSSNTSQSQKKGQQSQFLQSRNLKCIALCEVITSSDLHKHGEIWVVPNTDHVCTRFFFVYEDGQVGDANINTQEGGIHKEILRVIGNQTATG

[19] = biological target: Protein mono-ADP-ribosyltransferase TIPARP (Homo sapiens) (UniProt Q7Z3E1)
[20] = biological target: Protein mono-ADP-ribosyltransferase PARP14 (Homo sapiens) (UniProt Q460N5)
[21] = biological target: Protein mono-ADP-ribosyltransferase PARP12 (Homo sapiens) (UniProt Q9H0J9)
[22] = Hematotoxicity in CD34+ hematopoietic stem/progenitor cells (unknown origin) assessed as remaining viable cells treated at 100 nM for 5 days by cell-tire-Glo-2.0 luminescence based assay relative to control; assay type: toxicity, CD34-positive hematopoietic stem/progenitor cell; details: time 5 day, read-out: Activity
[23] = Hematotoxicity in CD34+ hematopoietic stem/progenitor cells (unknown origin) assessed as reduction of cell viability treated at 0.00001 to 100 uM for 5 days by cell-tire-Glo-2.0 luminescence based assay relative to control; assay type: toxicity; details: cd34-positive hematopoietic stem/progenitor cell, 120 h, dose lower 1e-05 µM, dose upper 100 µM, time 5 day
[24] = biological target: Protein mono-ADP-ribosyltransferase PARP12 (Homo sapiens, UniProt Q9H0J9)
[25] = Hematotoxicity in CD34+ hematopoietic stem/progenitor cells (unknown origin) assessed as reduction of cell viability treated for 5 days by cell-tire-Glo-2.0 luminescence based assay; assay type: toxicity, CD34-positive hematopoietic stem/progenitor cell

Sequence of Poly [ADP-ribose] polymerase 1 (P09874 whole entry): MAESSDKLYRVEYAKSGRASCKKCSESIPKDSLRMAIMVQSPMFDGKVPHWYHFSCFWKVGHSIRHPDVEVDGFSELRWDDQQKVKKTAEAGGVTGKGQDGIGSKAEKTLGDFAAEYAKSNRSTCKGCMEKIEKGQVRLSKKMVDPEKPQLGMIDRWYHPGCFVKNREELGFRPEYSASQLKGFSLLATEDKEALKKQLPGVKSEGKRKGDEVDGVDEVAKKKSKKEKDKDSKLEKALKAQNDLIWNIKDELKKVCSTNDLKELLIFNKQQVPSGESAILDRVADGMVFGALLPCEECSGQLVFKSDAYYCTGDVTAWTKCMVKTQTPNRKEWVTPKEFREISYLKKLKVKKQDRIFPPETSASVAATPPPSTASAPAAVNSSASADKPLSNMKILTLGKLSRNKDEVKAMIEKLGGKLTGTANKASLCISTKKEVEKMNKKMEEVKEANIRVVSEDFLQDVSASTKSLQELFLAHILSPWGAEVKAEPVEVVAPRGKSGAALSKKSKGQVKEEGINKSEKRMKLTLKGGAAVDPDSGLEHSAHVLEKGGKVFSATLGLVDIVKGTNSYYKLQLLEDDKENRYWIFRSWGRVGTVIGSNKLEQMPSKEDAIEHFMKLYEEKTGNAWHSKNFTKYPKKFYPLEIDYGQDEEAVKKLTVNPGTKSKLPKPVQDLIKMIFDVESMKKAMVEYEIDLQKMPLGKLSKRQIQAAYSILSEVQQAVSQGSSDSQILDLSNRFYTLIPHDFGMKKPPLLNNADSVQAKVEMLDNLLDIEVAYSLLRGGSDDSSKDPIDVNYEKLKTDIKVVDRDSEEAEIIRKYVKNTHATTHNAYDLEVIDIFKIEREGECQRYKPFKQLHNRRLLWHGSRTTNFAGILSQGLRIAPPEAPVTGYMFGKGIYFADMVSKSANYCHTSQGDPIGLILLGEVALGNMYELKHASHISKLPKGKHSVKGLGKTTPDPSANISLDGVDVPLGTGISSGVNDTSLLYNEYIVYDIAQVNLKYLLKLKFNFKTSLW
Sequence of Voltage-gated inwardly rectifying potassium channel KCNH2 (Q12809 whole entry): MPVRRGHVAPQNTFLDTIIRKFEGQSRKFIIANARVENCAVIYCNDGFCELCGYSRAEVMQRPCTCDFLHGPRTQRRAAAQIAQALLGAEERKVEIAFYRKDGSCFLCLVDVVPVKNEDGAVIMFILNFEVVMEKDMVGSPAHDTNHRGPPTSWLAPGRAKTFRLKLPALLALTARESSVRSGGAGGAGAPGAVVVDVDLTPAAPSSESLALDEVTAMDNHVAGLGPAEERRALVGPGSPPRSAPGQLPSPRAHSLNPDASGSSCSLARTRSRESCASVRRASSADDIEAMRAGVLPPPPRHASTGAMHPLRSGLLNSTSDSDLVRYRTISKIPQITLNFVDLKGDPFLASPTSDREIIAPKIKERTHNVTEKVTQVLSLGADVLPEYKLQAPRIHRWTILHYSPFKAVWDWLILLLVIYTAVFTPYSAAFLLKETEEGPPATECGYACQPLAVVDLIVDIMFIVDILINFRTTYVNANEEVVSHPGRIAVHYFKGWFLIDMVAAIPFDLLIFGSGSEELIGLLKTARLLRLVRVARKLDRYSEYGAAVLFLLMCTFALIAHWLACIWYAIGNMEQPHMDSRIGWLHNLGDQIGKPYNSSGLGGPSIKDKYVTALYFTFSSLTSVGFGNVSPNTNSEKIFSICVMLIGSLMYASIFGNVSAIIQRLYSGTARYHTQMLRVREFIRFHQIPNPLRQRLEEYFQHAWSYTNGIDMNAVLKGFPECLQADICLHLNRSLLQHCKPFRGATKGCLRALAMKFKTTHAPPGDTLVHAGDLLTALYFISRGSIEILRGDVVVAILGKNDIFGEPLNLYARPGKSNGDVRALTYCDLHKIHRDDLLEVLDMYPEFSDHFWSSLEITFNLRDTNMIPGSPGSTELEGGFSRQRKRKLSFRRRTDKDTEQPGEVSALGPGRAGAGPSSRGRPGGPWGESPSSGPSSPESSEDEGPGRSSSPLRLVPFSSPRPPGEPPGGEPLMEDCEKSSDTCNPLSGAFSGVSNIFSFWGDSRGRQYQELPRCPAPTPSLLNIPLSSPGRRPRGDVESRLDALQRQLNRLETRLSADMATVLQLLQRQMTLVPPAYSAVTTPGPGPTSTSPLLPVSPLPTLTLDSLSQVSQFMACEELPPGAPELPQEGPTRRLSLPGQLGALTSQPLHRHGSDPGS
Sequence of Poly [ADP-ribose] polymerase 2 (Q9UGN5 whole entry): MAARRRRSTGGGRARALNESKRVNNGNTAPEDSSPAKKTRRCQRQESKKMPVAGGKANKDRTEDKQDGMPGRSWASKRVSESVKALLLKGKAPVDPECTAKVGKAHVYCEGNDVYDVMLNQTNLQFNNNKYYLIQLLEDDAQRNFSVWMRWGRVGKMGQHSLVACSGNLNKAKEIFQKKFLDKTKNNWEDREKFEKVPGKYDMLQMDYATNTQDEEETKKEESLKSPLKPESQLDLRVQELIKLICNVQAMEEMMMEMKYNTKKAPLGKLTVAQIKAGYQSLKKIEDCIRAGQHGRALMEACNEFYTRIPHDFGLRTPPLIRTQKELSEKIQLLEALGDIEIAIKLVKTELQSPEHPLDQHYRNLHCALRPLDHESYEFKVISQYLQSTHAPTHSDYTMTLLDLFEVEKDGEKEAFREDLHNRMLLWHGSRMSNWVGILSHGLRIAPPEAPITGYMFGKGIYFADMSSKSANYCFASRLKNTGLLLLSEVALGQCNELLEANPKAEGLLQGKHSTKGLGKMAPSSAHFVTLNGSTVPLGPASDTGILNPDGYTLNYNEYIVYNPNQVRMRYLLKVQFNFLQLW
Sequence of Protein mono-ADP-ribosyltransferase PARP11 (Q9NR21 whole entry): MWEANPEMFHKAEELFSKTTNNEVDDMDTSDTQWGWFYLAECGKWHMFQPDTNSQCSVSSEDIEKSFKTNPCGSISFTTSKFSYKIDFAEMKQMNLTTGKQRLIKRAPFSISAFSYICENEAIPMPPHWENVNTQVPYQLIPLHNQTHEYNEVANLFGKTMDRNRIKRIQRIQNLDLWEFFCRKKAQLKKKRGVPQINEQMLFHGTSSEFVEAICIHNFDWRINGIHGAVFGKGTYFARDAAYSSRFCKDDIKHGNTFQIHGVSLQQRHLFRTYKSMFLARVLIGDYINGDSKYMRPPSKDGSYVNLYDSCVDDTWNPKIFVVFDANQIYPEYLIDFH
Sequence of Protein mono-ADP-ribosyltransferase TIPARP (Homo sapiens) (Q7Z3E1 whole entry): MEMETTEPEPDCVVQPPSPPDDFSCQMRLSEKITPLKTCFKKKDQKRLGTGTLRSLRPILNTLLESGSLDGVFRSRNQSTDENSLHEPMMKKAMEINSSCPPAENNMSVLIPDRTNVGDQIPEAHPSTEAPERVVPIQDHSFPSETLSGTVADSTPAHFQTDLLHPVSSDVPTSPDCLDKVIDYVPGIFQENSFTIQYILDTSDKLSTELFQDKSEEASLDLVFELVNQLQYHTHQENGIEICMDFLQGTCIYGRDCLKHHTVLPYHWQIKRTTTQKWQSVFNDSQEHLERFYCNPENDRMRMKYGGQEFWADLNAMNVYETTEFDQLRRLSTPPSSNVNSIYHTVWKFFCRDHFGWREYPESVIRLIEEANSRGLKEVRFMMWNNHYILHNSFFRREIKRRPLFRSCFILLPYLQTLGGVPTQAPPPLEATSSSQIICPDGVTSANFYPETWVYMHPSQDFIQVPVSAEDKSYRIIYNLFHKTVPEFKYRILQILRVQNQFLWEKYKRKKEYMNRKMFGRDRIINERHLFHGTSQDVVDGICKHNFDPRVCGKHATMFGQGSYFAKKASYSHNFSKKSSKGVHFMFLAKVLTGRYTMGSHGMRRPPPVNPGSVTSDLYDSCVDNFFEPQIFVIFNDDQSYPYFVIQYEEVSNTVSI
Sequence of Poly [ADP-ribose] polymerase tankyrase-2 (Homo sapiens) (Q9H2K2 whole entry): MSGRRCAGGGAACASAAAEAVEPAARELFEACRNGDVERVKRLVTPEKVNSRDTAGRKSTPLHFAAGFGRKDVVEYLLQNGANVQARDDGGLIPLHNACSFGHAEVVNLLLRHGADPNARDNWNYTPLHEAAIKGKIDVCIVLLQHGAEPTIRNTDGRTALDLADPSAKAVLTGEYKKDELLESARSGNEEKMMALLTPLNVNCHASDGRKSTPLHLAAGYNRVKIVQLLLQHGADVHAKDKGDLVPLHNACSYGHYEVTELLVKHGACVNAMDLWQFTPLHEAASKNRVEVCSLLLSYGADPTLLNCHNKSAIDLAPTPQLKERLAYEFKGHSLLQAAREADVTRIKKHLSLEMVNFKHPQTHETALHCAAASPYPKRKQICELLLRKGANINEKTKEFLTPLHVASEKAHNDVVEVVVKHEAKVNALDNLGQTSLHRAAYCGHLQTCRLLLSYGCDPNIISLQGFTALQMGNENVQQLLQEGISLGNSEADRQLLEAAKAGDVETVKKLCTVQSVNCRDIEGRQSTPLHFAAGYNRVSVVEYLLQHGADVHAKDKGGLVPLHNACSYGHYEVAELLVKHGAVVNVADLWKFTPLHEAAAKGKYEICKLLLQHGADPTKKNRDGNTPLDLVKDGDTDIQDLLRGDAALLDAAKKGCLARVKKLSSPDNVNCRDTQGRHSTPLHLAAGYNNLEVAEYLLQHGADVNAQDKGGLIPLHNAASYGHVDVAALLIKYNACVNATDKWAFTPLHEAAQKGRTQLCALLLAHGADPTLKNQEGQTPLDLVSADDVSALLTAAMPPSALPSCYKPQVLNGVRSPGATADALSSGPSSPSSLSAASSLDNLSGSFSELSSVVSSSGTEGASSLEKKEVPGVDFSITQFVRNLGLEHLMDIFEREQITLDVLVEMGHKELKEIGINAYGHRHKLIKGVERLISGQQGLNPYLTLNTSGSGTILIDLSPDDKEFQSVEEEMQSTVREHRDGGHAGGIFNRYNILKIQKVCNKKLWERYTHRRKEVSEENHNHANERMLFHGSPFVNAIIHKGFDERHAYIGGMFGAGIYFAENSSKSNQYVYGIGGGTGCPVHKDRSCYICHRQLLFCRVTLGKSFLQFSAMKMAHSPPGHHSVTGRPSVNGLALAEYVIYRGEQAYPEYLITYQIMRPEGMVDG

| Structure (SMILES) | logD (physchem) | pIC50 [1] | solubility [2] [µM] | pIC50 [3] | pIC50 (DLD-1; Homo sapiens, DLD-1, 168 h) | pIC50 [4] | microsomal CLint (in vitro [5]) [µL/min/mg] | further results |
| --- | --- | --- | --- | --- | --- | --- | --- | --- |
| O=c1[nH]c(CCCN2CC=C(c3ccc(F)cc3)CC2)nc2c(Cl)cccc12 | 3.8 | 7.19 | 56 (≈ 22.3 µg/mL) | 4.70 | < 4.64 | 5.59 | 35 |  |
| Cc1cnc(N2CCN(CCCc3nc4c(Cl)cccc4c(=O)[nH]3)CC2)n1C | 2.3 |  | 4 (≈ 1.6 µg/mL) | 5.40 | 6.74 | 5.82 | 44 |  |
| CNCc1ccc(-c2[nH]c3cc(F)cc4c3c2CCNC4=O)cc1 [RUCAPARIB] |  |  |  |  | 7.57 |  |  | pKd [6]: 5.51; pKd [7]: < 5.00; Kd(app) [8]: Active; pKd [9]: < 5.00 |
| CCc1cc2ccc(CN3CCN(c4ncc(C)n4C)CC3)cc2[nH]c1=O | 2.7 |  | 224 (≈ 81.9 µg/mL) | 5.38 | 8.52 | 4.92 | 25 |  |
| O=C(c1cc(Cc2n[nH]c(=O)c3ccccc23)ccc1F)N1CCN(C(=O)C2CC2)CC1 [OLAPARIB] |  |  |  |  | 7.38 |  |  | Activity [10]: 81% |
| NC(=O)c1cc(F)cc2c1C(=O)N(C1CCN(C3CCC(F)(F)CC3)CC1)C2 |  |  |  |  | 5.70 |  |  | pIC50 [11]: < 4.00 |
| Cc1cnc(N2CCN(Cc3ccc4c5c(c(=O)[nH]c4c3)CCCN5)CC2)n1C | 2.2 | 7.29 | 136 (≈ 53.4 µg/mL) | 5.96 | 7.28 | 4.52 | 15 | efflux ratio (in vitro [12]): 3.6 |
| CCc1cc2cnc(CN3CCN(c4ccc(C(=O)NC)nc4)CC3)cc2[nH]c1=O | 2 |  | 31 (≈ 12.6 µg/mL) |  | 8.70 |  | 6 | hepatocyte CLint [13]: < 1 µL/min/1e6 cells |
| CCc1cc2ccc(CN3CCN(c4cnc(C(=O)NC)nc4)CC3)cc2[nH]c1=O | 1.8 | 8.10 | 58 (≈ 23.6 µg/mL) | 5.62 | 5.60 | < 4.40 | < 3 | efflux ratio (in vitro [12]): 14 |
| NC(=O)c1cccc2cn(-c3ccc([C@@H]4CCCNC4)cc3)nc12 [NIRAPARIB] |  |  |  |  | 6.83 |  |  | Kd(app) [14]: Active; Kd(app) [15]: Active; pKd [16]: < 5.00; Kd(app) [17]: Active; Kd(app) [18]: Active; pKd [9]: < 5.00 |
| C[C@]1(c2nc3c(C(N)=O)cccc3[nH]2)CCCN1 [VELIPARIB] |  |  |  |  |  |  |  | Kd(app) [15]: Active; pIC50 (DLD-1; dld-1): 6.12; Kd(app) [18]: Active; Kd(app) [19]: Active; Kd(app) [20]: Active; Kd(app) [21]: Active |
| CCc1cc2ccc(CN3CCN(c4ccc(C(=O)NC)cc4)CC3)cc2[nH]c1=O | 3 |  | < 0.25 | 5.41 | 8.15 | 5.08 | 11 |  |
| CCc1cc2ccc(CN3CCN(c4ccc(C(=O)NC)nn4)CC3)cc2[nH]c1=O | 2.4 | 8.40 | 30 (≈ 12.2 µg/mL) | 5.13 | 6.53 | < 4.40 | 14 | efflux ratio (in vitro [12]): 1.5 |
| Cn1ncnc1[C@H]1c2n[nH]c(=O)c3cc(F)cc(c23)N[C@@H]1c1ccc(F)cc1 [TALAZOPARIB] |  |  |  |  | 8.70 |  |  | viability at 120 h, 0.1 µM [22]: 10%; Activity [23]: 1%; pKd [24]: < 5.00; IC50 at 5 days ([25]; CD34+ hematopoietic stem/progenitor cells): 27 nM; Activity ([25]; cd34-positive hematopoietic stem/progenitor cell, 120 h, DDE = dose-dependent effect, dose lower 1e-05 µM, dose upper 100 µM, time 5 day): Dde; Kd(app) [15]: Active; pKd [7]: 5.96; Kd(app) [19]: Active; Kd(app) [8]: Active |
| O=c1[nH]c(CCCN2CCN(c3ccc(F)cc3F)CC2)nc2c(Cl)cccc12 | 3.9 |  | 6 (≈ 2.51 µg/mL) | 4.66 |  | 5.85 | 58 |  |
| CCc1cc2ccc(CN3CCN(c4ccc(F)cc4F)CC3)cc2[nH]c1=O | 4.2 | 8.10 | 0.2 (≈ 0.0767 µg/mL) | < 4.59 | 9.00 | 5.64 | 16 |  |
| Cc1cnc(N2CCN(Cc3ccc4c(c3)[nH]c(=O)c3ccccc34)CC2)n1C | 3.3 |  | < 12 | 6.22 |  | 5.41 | 26 |  |
| CCc1cc2ccc(CN3CCN(c4cnc(C(=O)NC)cn4)CC3)cc2[nH]c1=O | 2.7 |  | 2 (≈ 0.813 µg/mL) | 5.23 | 5.36 | < 4.40 | 18 |  |
| Cc1cnc(N2CCN(Cc3ccc4c5c(c(=O)[nH]c4c3)CCCC5)CC2)n1C | 3.2 |  | 46 (≈ 18 µg/mL) | 6.31 |  | 5.42 | 57 |  |
| CCc1cc2ccc(CN3CCN(c4ccc(C(=O)NC)nc4)CC3)cc2[nH]c1=O | 2.8 | 8.30 | 9 (≈ 3.65 µg/mL) | 5.96 | 8.52 | 4.68 | 17 | efflux ratio (in vitro [12]): 0.7 |
| Cc1cnc(N2CCN(Cc3ccc4c(c3)[nH]c(=O)c3cccnc34)CC2)n1C | 2.5 | 7.52 | 15 (≈ 5.83 µg/mL) | 5.04 | 7.82 | 4.96 | 30 | efflux ratio (in vitro [12]): 1.3 |
| Cc1cnc(N2CCN(Cc3ccc4c5c(c(=O)[nH]c4c3)COCC5)CC2)n1C | 1.9 | 7.42 | 158 (≈ 62.2 µg/mL) | 5.18 |  | < 4.40 | 8 | efflux ratio (in vitro [12]): 10 |
| Cc1cnc(N2CCN(Cc3ccc4c(c3)[nH]c(=O)c3ncccc34)CC2)n1C | 1.7 |  | 383 (≈ 149 µg/mL) | 4.55 | 6.92 | < 4.40 | 9 |  |
| CCc1nc2ccc(CN3CCN(c4ccc(C(=O)NC)nc4)CC3)cc2[nH]c1=O | 2.4 |  | 12 (≈ 4.88 µg/mL) | 5.31 | 8.40 |  | 7 | efflux ratio (in vitro [12]): 1; hepatocyte CLint [13]: 1.9 µL/min/1e6 cells |
